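The compound was tested at five concentrations on cells cultured in 96-well plates, with a 48-hour exposure period. Here, GI50 denotes the concentration required for 50% inhibition of growth.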 Calls of active or inactive are those of the source. Rule as the data show it: active = GI50 up to about 1.1 µM and inactive = higher.
What was measured:
Assay in all cases: growth of human tumour cells (NCI), 48 h
UACC-62 = test system: UACC-62
MDA-N = test system: MDA-N
OVCAR-3 = test system: OVCAR-3
SK-MEL-28 = test system: SK-MEL-28
PC-3 = test system: PC-3
786-0 = test system: 786-0
TK-10 = test system: TK-10
HL-60 = test system: HL-60
DU-145 = test system: DU-145
SNB-75 = test system: SNB-75
HCT-15 = test system: HCT-15
BT-549 = test system: BT-549
SF-268 = test system: SF-268
SW-620 = test system: SW-620
NCI-H226 = test system: NCI-H226
HT-29 = test system: HT-29
SK-MEL-2 = test system: SK-MEL-2
NCI-H522 = test system: NCI-H522
OVCAR-8 = test system: OVCAR-8
SR = test system: SR
MDA-MB-231 = test system: MDA-MB-231
LOX IMVI = test system: LOX IMVI
HCC 2998 = test system: HCC 2998
OVCAR-5 = test system: OVCAR-5
SK-MEL-5 = test system: SK-MEL-5
CAKI-1 = test system: CAKI-1
HCT-116 = test system: HCT-116
ACHN = test system: ACHN
T47D = test system: T47D
COLO 205 = test system: COLO 205
MOLT-4 = test system: MOLT-4
SNB-19 = test system: SNB-19
MDA-MB-435 = test system: MDA-MB-435
UACC-257 = test system: UACC-257
SF-539 = test system: SF-539
RXF 393 = test system: RXF 393
HOP-62 = test system: HOP-62
SF-295 = test system: SF-295
MCF7 = test system: MCF7
U-251 = test system: U-251
HOP-92 = test system: HOP-92
CCRF-CEM = test system: CCRF-CEM
NCI/ADR-RES = test system: NCI/ADR-RES
OVCAR-4 = test system: OVCAR-4
K562 = test system: K562
Hs-578T = test system: Hs-578T
NCI-H460 = test system: NCI-H460
A549 = test system: A549
IGROV-1 = test system: IGROV-1
EKVX = test system: EKVX
KM12 = test system: KM12
Malme-3M = test system: Malme-3M
SN12C = test system: SN12C
SK-OV-3 = test system: SK-OV-3
M14 = test system: M14
UO-31 = test system: UO-31
NCI-H23 = test system: NCI-H23

COP(=O)(CC(=O)C1OC(OCc2ccccc2)C(OCc2ccccc2)C(OCc2ccccc2)C1OCc1ccccc1)OC (configuration not stated)
GI50 (UACC-62): 4.12 µM (inactive)
GI50 (MDA-N): 4.27 µM (inactive)
GI50 (OVCAR-3): 8.87 µM (inactive)
GI50 (SK-MEL-28): 54 µM (inactive)
GI50 (PC-3): 5.01 µM (inactive)
GI50 (786-0): 12.5 µM (inactive)
GI50 (TK-10): 15.3 µM (inactive)
GI50 (HL-60): 4.39 µM (inactive)
GI50 (DU-145): 22 µM (inactive)
GI50 (SNB-75): 7.76 µM (inactive)
GI50 (HCT-15): 4.83 µM
GI50 (BT-549): 17.4 µM (inactive)
GI50 (SF-268): 12.8 µM (inactive)
GI50 (SW-620): 12.8 µM (inactive)
GI50 (NCI-H226): 4.91 µM (inactive)
GI50 (HT-29): 6.19 µM (inactive)
GI50 (SK-MEL-2): 3.22 µM (inactive)
GI50 (NCI-H522): 9.51 µM (inactive)
GI50 (OVCAR-8): 5.87 µM (inactive)
GI50 (SR): 3.26 µM (inactive)
GI50 (MDA-MB-231): 10.2 µM (inactive)
GI50 (LOX IMVI): 11 µM (inactive)
GI50 (HCC 2998): 3.32 µM (inactive)
GI50 (OVCAR-5): 17.6 µM (inactive)
GI50 (SK-MEL-5): 4.23 µM (inactive)
GI50 (CAKI-1): 4.7 µM (inactive)
GI50 (HCT-116): 5.11 µM (inactive)
GI50 (ACHN): 5.71 µM (inactive)
GI50 (T47D): 4.3 µM (inactive)
GI50 (COLO 205): 3.78 µM (inactive)
GI50 (MOLT-4): 2.69 µM (inactive)
GI50 (SNB-19): 11.4 µM (inactive)
GI50 (MDA-MB-435): 5.38 µM (inactive)
GI50 (UACC-257): 6.81 µM (inactive)
GI50 (SF-539): 12.8 µM (inactive)
GI50 (RXF 393): 2.62 µM (inactive)
GI50 (HOP-62): 20.1 µM (inactive)
GI50 (SF-295): 5.36 µM (inactive)
GI50 (MCF7): 4.74 µM (inactive)
GI50 (U-251): 6.37 µM (inactive)
GI50 (HOP-92): 10.4 µM (inactive)
GI50 (CCRF-CEM): 4.76 µM (inactive)
GI50 (NCI/ADR-RES): 4.16 µM (inactive)
GI50 (OVCAR-4): 2.19 µM (inactive)
GI50 (K562): 4.31 µM (inactive)
GI50 (Hs-578T): 23.9 µM (inactive)
GI50 (NCI-H460): 4.24 µM (inactive)
GI50 (A549): 5.57 µM (inactive)
GI50 (IGROV-1): 13.3 µM (inactive)
GI50 (EKVX): 8.07 µM (inactive)
GI50 (KM12): 4.16 µM (inactive)
GI50 (Malme-3M): 9.1 µM (inactive)
GI50 (SN12C): 3 µM (inactive)
GI50 (SK-OV-3): 27.8 µM (inactive)
GI50 (M14): 10.9 µM (inactive)
GI50 (UO-31): 2.94 µM (inactive)
GI50 (NCI-H23): 8.47 µM (inactive)
